Where a name gives a salt, the structure may show the parent alone.

Test [1] has as its system MTP (microsomal triglyceride transfer protein). The experiment in a line: MTP activity-lowering activity: liver MTP activity after 2 weeks' dosing of rats. To be noted: SD rats, liver homogenate, control group 9.09 ± 1.0. Format: in vivo. The protocol: SD rats weighing about 200 g in groups of 6 were given 20 mg or 60 mg of the hydrochloride of the amino acid of the invention in 10 ml of water in 3 divided doses daily for 2 weeks. Thereafter, the liver was excised and homogenized using a homogenizing buffer (50 mM Tris (pH 7.4), 50 mM potassium chloride, 1.5 mM EDTA, leupeptin (5 μg/ml) and 2 mM phenylmethylsulfonyl fluoride) and the homogenate was centrifuged to give a liver homogenate. This liver homogenate was adjusted to a protein concentration of about 2 mg/mL with the same homogenizing buffer and 1 part of deoxycholate solution (0.56%, pH 7.5) was added to 10 parts of the homogenate. The reaction was then carried out at 4° C. for 30 minutes, whereby MTP was liberated from the microsomal fraction. The membrane fraction was then removed by centrifugation to give a supernatant. This supernatant was diluted with Tris buffer (a buffer solution containing 15 mM Tris (pH 7.4), 40 mM NaCl, 1 mM EDTA, 0.02% NaN3) and dialyzed against the same buffer at 4° C. overnight. The dialysate thus obtained was analyzed for MTP activity by the method of J. R. Wetterau [Science, 258, 999 (1992)].

Test [2] relates to HepG2 cells (apo B secretion). The experiment in a line: Apo B antisecretory activity (1): apo B secreted into medium by HepG2 cells, ELISA. Format: cell-based, human. As to conditions: for Apo B secretions (μg/well): 24 hours' culture, control group 9.92 ± 0.80. The protocol: HepG2 cells (100×10^4 cells/dish) were sown on 3.5 cm dishes and precultured using 1 ml DME (containing 10% FCS) medium per dish. Following this preculture, the cells were washed with DME medium twice, added to the test medium, and cultured at 37° C. under 95% air-5% carbon dioxide for 24 hours. The test medium was prepared by dissolving cycloalliin in dimethyl sulfoxide and diluted with DME medium containing 1% ESA and 0.5 mM oleic acid to a final cycloalliin concentration of 10^−6 M or 10^−4 M.
After 24 hours' culture, the medium was recovered and the amount of apo B secreted into the medium was determined by ELISA. Thus, anti-human apo B antibody (a 100-fold dilution) was distributed into a 96-well ELISA plate, 100 μL per well, and incubated at 37° C. for 2 hours. Then, 100 μL/well of Block Ace was added and the plate was further incubated at 37° C. for 2 hours. The wells were washed with PBS-Tween×3 and 100 μL each of apo B standard solution and HepG2 culture were added, followed by further incubation at 4° C. for 16 hours. After the wells were washed with PBS-Tween×3, 100 μL/well of anti-human apo B marker antibody (a 200-fold dilution) was added and the plate was incubated at 37° C. for 2 hours. The wells were washed with PBS-Tween×3, then 100 μL/well of the substrate solution was added, and the plate was incubated at 25° C. for 30 minutes. The reaction was stopped by adding 50 μL of 4.5 M H2SO4 and the absorbance at 482 nm was measured to estimate the amount of apo B secretion.

The test system of test [3] is HepG2 cells (TG secretion). As to the kind of experiment: TG antisecretory activity: secreted [14C]-labeled triglyceride in HepG2 medium. Format: cell-based. To be noted: HepG2, 10 μM, 24 hours of culture; control group 161.2 ± 2.2. The protocol:
HepG2 cells were cultured in DME medium supplemented with 1% BSA and 0.5 mM oleic acid for 24 hours. Then, the medium was changed to 1% BSA-DME containing 10 μM of the amino acid of the invention and simultaneously 0.5 μci of [^14C] acetic acid was added. The cells and medium were recovered after 24 hours of culture. The recovered cells were homogenized by sonication, and after quantitation of protein, the amount of secreted triglyceride (TG) was determined from the amount of labeled lipid in the medium.

[4] abbreviates: 60 mg daily in 3 divided doses for 2 weeks.

In the case of `C[C@H]1C[S@+]([O-])C[C@@H](C(=O)O)N1` [Cycloalliin HCl, (1S, 3R, 5S)-5-methyl-1,4-thiazane-3-carboxylic acid 1-oxide], the “MTP activity (%)” value in test [1] (20 mg daily in 3 divided doses for 2 weeks) is recorded as 6.12 ± 0.7 %; in test [1] (setting [4]) it was 4.92 ± 1.0 %.

Regarding `C[C@H]1C[S@+]([O-])C[C@@H](C(=O)O)N1` [Cycloalliin, (1S, 3R, 5S)-5-methyl-1,4-thiazane-3-carboxylic acid 1-oxide], the “Apo B secretions (μg/well)” value in test [2] (HepG2, 10^−4 M) is given as 7.67 ± 1.31 μg/well; in test [2] (HepG2, 10^−6 M), 7.54 ± 1.13 μg/well. For the same compound, the “Effect on apo B secretion (in words)” value in test [2] (HepG2, 10^−6 M or 10^−4 M, 24 hours, vs control group) is reported as “significant suppression of apo B secretion”.

Regarding “S-methyl-L-cysteine sulfoxide [S-methyl-L-cysteine sulfoxide HCl]”, the “MTP activity (%)” value in test [1] (setting [4]) was 5.43 ± 0.6 %. Consider S-n-propyl-L-cysteine sulfoxide, for which the “TG secretions ([^14C] dpm × 10^−2/mg protein)” value in test [3] was 105.8 ± 18.9 [^14C] dpm × 10^−2/mg protein.

Values taken from US20030105093A1, “MTP activity-lowering compositions” (priority 1998, published 2003).
